Columns and labels:
ISC-enriched organoids [1] = assay: Primary screen, 384-well 2.5-D organoid differentiation (ENR+CD, 6 days): basal lysozyme secretion (LYZ.NS); assay type: cell-based, murine; conditions: for Dose.FC.LYZ.NS (log 2 fold change, basal lysozyme secretion): vs plate median
Excerpt: (§1) High-throughput screening.

ISC-enriched organoids [2] = assay: Primary screen, 384-well 2.5-D organoid differentiation (ENR+CD, 6 days): carbachol-induced lysozyme secretion (LYZ.S); assay type: cell-based, murine; conditions: vs plate median
Excerpt: as §1

ISC-enriched organoids [3] = assay: Primary screen, 384-well 2.5-D organoid differentiation (ENR+CD, 6 days, Target Selective Inhibitor Library, vs whole-plate median): ATP (CellTiter-Glo 3D, CTG); conditions: for Dose.FC.CTG (log 2 fold change, ATP): vs plate median

| SMILES | Z.LYZ.NS (standard z score) (ISC-enriched organoids [1]; dose 0.08 uM) | Dose.FC.LYZ.NS (log 2 fold change, basal lysozyme secretion) (ISC-enriched organoids [1]; dose 0.08 uM) | Z.LYZ.NS (standard z score) (ISC-enriched organoids [1]; dose 0.40 uM) | Dose.FC.LYZ.NS (log 2 fold change, basal lysozyme secretion) (ISC-enriched organoids [1]; dose 0.40 uM) | Z.LYZ.NS (standard z score) (ISC-enriched organoids [1]; dose 2.00 uM) | Dose.FC.LYZ.NS (log 2 fold change, basal lysozyme secretion) (ISC-enriched organoids [1]; dose 2.00 uM) | Z.LYZ.NS (standard z score) (ISC-enriched organoids [1]; dose 10.00 uM) | Dose.FC.LYZ.NS (log 2 fold change, basal lysozyme secretion) (ISC-enriched organoids [1]; dose 10.00 uM) | Dose.FC.LYZ.S (log 2 fold change, carbachol-induced lysozyme secretion) (ISC-enriched organoids [2]; dose 0.08 uM) | Dose.FC.LYZ.S (log 2 fold change, carbachol-induced lysozyme secretion) (ISC-enriched organoids [2]; dose 0.40 uM) | Dose.FC.LYZ.S (log 2 fold change, carbachol-induced lysozyme secretion) (ISC-enriched organoids [2]; dose 2.00 uM) | Dose.FC.LYZ.S (log 2 fold change, carbachol-induced lysozyme secretion) (ISC-enriched organoids [2]; dose 10.00 uM) | Z.CTG (standard z score) (ISC-enriched organoids [3]; dose 0.08 uM) | Dose.FC.CTG (log 2 fold change, ATP) (ISC-enriched organoids [3]; dose 0.08 uM) | Z.CTG (standard z score) (ISC-enriched organoids [3]; dose 0.40 uM) | Dose.FC.CTG (log 2 fold change, ATP) (ISC-enriched organoids [3]; dose 0.40 uM) | Z.CTG (standard z score) (ISC-enriched organoids [3]; dose 2.00 uM) | Dose.FC.CTG (log 2 fold change, ATP) (ISC-enriched organoids [3]; dose 2.00 uM) | Z.CTG (standard z score) (ISC-enriched organoids [3]; dose 10.00 uM) | Dose.FC.CTG (log 2 fold change, ATP) (ISC-enriched organoids [3]; dose 10.00 uM) |
| --- | --- | --- | --- | --- | --- | --- | --- | --- | --- | --- | --- | --- | --- | --- | --- | --- | --- | --- | --- | --- |
| CC(/C=C/C(=O)NO)=C\[C@@H](C)C(=O)c1ccc(N(C)C)cc1 [Trichostatin A (TSA)] | −0.554 | −0.064 | −1.697 | −0.195 | −1.334 | −0.153 | −1.298 | −0.149 | −0.124 | −0.254 | −0.210 | −0.202 | 0.457 | 0.191 | −1.913 | −0.801 | −2.159 | −0.904 | −1.974 | −0.826 |
| O=C(O[C@H]1C[C@H]2CC[C@@H](C1)[N+]21CCCC1)C(O)(c1ccccc1)c1ccccc1 [Trospium chloride] | 1.470 | 0.169 | 1.895 | 0.218 | −0.017 | −0.002 | 0.885 | 0.102 | 0.119 | 0.117 | −0.008 | 0.084 | 0.199 | 0.083 | −0.073 | −0.031 | 0.477 | 0.200 | 0.354 | 0.148 |
| CC(C)(C)c1cc(/C=C(\C#N)C(N)=S)cc(C(C)(C)C)c1O [Tyrphostin AG 879] | 0.088 | 0.010 | −0.680 | −0.078 | −0.698 | −0.080 | −0.960 | −0.110 | −0.083 | −0.084 | −0.051 | −0.123 | −0.828 | −0.347 | −0.569 | −0.238 | −0.554 | −0.232 | −0.879 | −0.368 |
| CCO.N#CC(=C(/N)Sc1ccccc1N)/C(C#N)=C(\N)Sc1ccccc1N [U0126-EtOH] | 0.859 | 0.099 | 0.163 | 0.019 | −0.389 | −0.045 | −1.021 | −0.117 | 0.114 | 0.075 | −0.071 | −0.165 | −0.835 | −0.350 | −1.227 | −0.514 | −1.138 | −0.476 | −1.887 | −0.790 |
| O=C(c1cncc(Br)c1)N1CCC(N2CCCC2)CC1 [UNC669] | 0.578 | 0.066 | −0.048 | −0.006 | 0.606 | 0.070 | 0.249 | 0.029 | 0.047 | −0.029 | 0.025 | 0.002 | −0.226 | −0.095 | 0.228 | 0.096 | −0.561 | −0.235 | 0.174 | 0.073 |
| CCCCNc1ncc(-c2ccc(CN3CCOCC3)cn2)c(NC2CCC(O)CC2)n1 (centres unmarked) [UNC2250] | 1.005 | 0.115 | 0.587 | 0.067 | 0.744 | 0.085 | −1.336 | −0.153 | 0.142 | 0.113 | 0.134 | −0.205 | 0.633 | 0.265 | 0.667 | 0.279 | 0.250 | 0.105 | −0.153 | −0.064 |
| CS(=O)(=O)c1ccc(-c2cnc(N)c(C(=O)Nc3ccccc3)n2)cc1 [VE-821] | 0.924 | 0.106 | 0.544 | 0.063 | 0.901 | 0.103 | −2.475 | −0.284 | 0.130 | 0.089 | −0.004 | −0.429 | 0.508 | 0.213 | 0.311 | 0.130 | −0.328 | −0.137 | −2.006 | −0.840 |
